# From PubChem BioAssay (NCI)
#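 Where inhibition never reached the appropriate level, the endpoint shown equals the highest concentration tested. Otherwise, values were interpolated linearly from a five-concentration, 48-hour dose response in 96-well plates. At the GI50, growth is halved. Definition used: TGI = concentration required for complete inhibition of growth.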
# Key:
# Assay in all cases: DTP human tumour cell line panel, 48 h
# 786-0 renal = test system: 786-0 renal
# A498 renal = test system: A498 renal
# A549 NSCLC = test system: A549 NSCLC
# ACHN renal = test system: ACHN renal
# BT-549 breast = test system: BT-549 breast
# CAKI-1 renal = test system: CAKI-1 renal
# CCRF-CEM leukemia = test system: CCRF-CEM leukemia
# COLO 205 colon = test system: COLO 205 colon
# DU-145 prostate = test system: DU-145 prostate
# EKVX NSCLC = test system: EKVX NSCLC
# HCC-2998 colon = test system: HCC-2998 colon
# HCT-116 colon = test system: HCT-116 colon
# HCT-15 colon = test system: HCT-15 colon
# HL-60(TB) leukemia = test system: HL-60(TB) leukemia
# HOP-62 NSCLC = test system: HOP-62 NSCLC
# HOP-92 NSCLC = test system: HOP-92 NSCLC
# HS 578T breast = test system: HS 578T breast
# HT29 colon = test system: HT29 colon
# IGROV1 ovarian = test system: IGROV1 ovarian
# K-562 leukemia = test system: K-562 leukemia
# KM12 colon = test system: KM12 colon
# LOX IMVI melanoma = test system: LOX IMVI melanoma
# M14 melanoma = test system: M14 melanoma
# MALME-3M melanoma = test system: MALME-3M melanoma
# MCF7 breast = test system: MCF7 breast
# MDA-MB-231 breast = test system: MDA-MB-231 breast
# MOLT-4 leukemia = test system: MOLT-4 leukemia
# NCI-H226 lung = test system: NCI-H226 lung
# NCI-H23 lung = test system: NCI-H23 lung
# NCI-H460 lung = test system: NCI-H460 lung
# NCI/ADR-RES ovarian = test system: NCI/ADR-RES ovarian
# OVCAR-3 ovarian = test system: OVCAR-3 ovarian
# OVCAR-4 ovarian = test system: OVCAR-4 ovarian
# OVCAR-5 ovarian = test system: OVCAR-5 ovarian
# OVCAR-8 ovarian = test system: OVCAR-8 ovarian
# PC-3 prostate = test system: PC-3 prostate
# RPMI-8226 leukemia = test system: RPMI-8226 leukemia
# RXF 393 renal = test system: RXF 393 renal
# SF-268 CNS = test system: SF-268 CNS
# SF-295 CNS = test system: SF-295 CNS
# SF-539 CNS = test system: SF-539 CNS
# SK-MEL-2 melanoma = test system: SK-MEL-2 melanoma
# SK-MEL-28 melanoma = test system: SK-MEL-28 melanoma
# SK-MEL-5 melanoma = test system: SK-MEL-5 melanoma
# SK-OV-3 ovarian = test system: SK-OV-3 ovarian
# SN12C renal = test system: SN12C renal
# SNB-19 CNS = test system: SNB-19 CNS
# SNB-75 CNS = test system: SNB-75 CNS
# SR leukemia = test system: SR leukemia
# SW-620 colon = test system: SW-620 colon
# T-47D breast = test system: T-47D breast
# TK-10 renal = test system: TK-10 renal
# U251 CNS = test system: U251 CNS
# UACC-257 melanoma = test system: UACC-257 melanoma
# UACC-62 melanoma = test system: UACC-62 melanoma
# UO-31 renal = test system: UO-31 renal
smiles,measurement,setting,value
O=C(NCCCCNC(=O)OCc1ccc2c(Cl)cc(Cl)c(O)c2n1)OCc1ccc2c(Cl)cc(Cl)c(O)c2n1,GI50,786-0 renal,4.95 µM
same,TGI,786-0 renal,> 100 µM
same,GI50,A498 renal,0.295 µM
same,TGI,A498 renal,5.23 µM
same,GI50,A549 NSCLC,6.33 µM
same,TGI,A549 NSCLC,> 100 µM
same,GI50,ACHN renal,0.537 µM
same,TGI,ACHN renal,> 100 µM
same,GI50,BT-549 breast,2.27 µM
same,TGI,BT-549 breast,> 100 µM
same,GI50,CAKI-1 renal,0.782 µM
same,TGI,CAKI-1 renal,> 100 µM
same,GI50,CCRF-CEM leukemia,0.398 µM
same,TGI,CCRF-CEM leukemia,> 100 µM
same,GI50,COLO 205 colon,24.4 µM
same,TGI,COLO 205 colon,> 100 µM
same,GI50,DU-145 prostate,0.855 µM
same,TGI,DU-145 prostate,> 100 µM
same,GI50,EKVX NSCLC,10.6 µM
same,TGI,EKVX NSCLC,> 100 µM
same,GI50,HCC-2998 colon,3.62 µM
same,TGI,HCC-2998 colon,> 100 µM
same,GI50,HCT-116 colon,0.359 µM
same,TGI,HCT-116 colon,> 100 µM
same,GI50,HCT-15 colon,0.89 µM
same,TGI,HCT-15 colon,> 100 µM
same,GI50,HL-60(TB) leukemia,0.499 µM
same,TGI,HL-60(TB) leukemia,2.2 µM
same,GI50,HOP-62 NSCLC,2.61 µM
same,TGI,HOP-62 NSCLC,> 100 µM
same,GI50,HOP-92 NSCLC,3.86 µM
same,TGI,HOP-92 NSCLC,> 100 µM
same,GI50,HS 578T breast,0.979 µM
same,TGI,HS 578T breast,> 100 µM
same,GI50,HT29 colon,43.7 µM
same,TGI,HT29 colon,> 100 µM
same,GI50,IGROV1 ovarian,1.22 µM
same,TGI,IGROV1 ovarian,> 100 µM
same,GI50,K-562 leukemia,0.586 µM
same,TGI,K-562 leukemia,> 100 µM
same,GI50,KM12 colon,0.543 µM
same,TGI,KM12 colon,> 100 µM
same,GI50,LOX IMVI melanoma,0.72 µM
same,TGI,LOX IMVI melanoma,> 100 µM
same,GI50,M14 melanoma,0.502 µM
same,TGI,M14 melanoma,> 100 µM
same,GI50,MALME-3M melanoma,2.87 µM
same,TGI,MALME-3M melanoma,> 100 µM
same,GI50,MCF7 breast,0.406 µM
same,TGI,MCF7 breast,> 100 µM
same,GI50,MDA-MB-231 breast,0.685 µM
same,TGI,MDA-MB-231 breast,> 100 µM
same,GI50,MOLT-4 leukemia,0.591 µM
same,TGI,MOLT-4 leukemia,> 100 µM
same,GI50,NCI-H226 lung,24.3 µM
same,TGI,NCI-H226 lung,> 100 µM
same,GI50,NCI-H23 lung,1.83 µM
same,TGI,NCI-H23 lung,> 100 µM
same,GI50,NCI-H460 lung,0.521 µM
same,TGI,NCI-H460 lung,> 100 µM
same,GI50,NCI/ADR-RES ovarian,0.336 µM
same,TGI,NCI/ADR-RES ovarian,> 100 µM
same,GI50,OVCAR-3 ovarian,0.442 µM
same,TGI,OVCAR-3 ovarian,> 100 µM
same,GI50,OVCAR-4 ovarian,4.47 µM
same,TGI,OVCAR-4 ovarian,> 100 µM
same,GI50,OVCAR-5 ovarian,47.1 µM
same,TGI,OVCAR-5 ovarian,> 100 µM
same,GI50,OVCAR-8 ovarian,0.458 µM
same,TGI,OVCAR-8 ovarian,> 100 µM
same,GI50,PC-3 prostate,1.64 µM
same,TGI,PC-3 prostate,> 100 µM
same,GI50,RPMI-8226 leukemia,0.336 µM
same,TGI,RPMI-8226 leukemia,> 100 µM
same,GI50,RXF 393 renal,3.38 µM
same,TGI,RXF 393 renal,> 100 µM
same,GI50,SF-268 CNS,1.25 µM
same,TGI,SF-268 CNS,> 100 µM
same,GI50,SF-295 CNS,4.17 µM
same,TGI,SF-295 CNS,> 100 µM
same,GI50,SF-539 CNS,0.288 µM
same,TGI,SF-539 CNS,1.4 µM
same,GI50,SK-MEL-2 melanoma,1.94 µM
same,TGI,SK-MEL-2 melanoma,> 100 µM
same,GI50,SK-MEL-28 melanoma,0.809 µM
same,TGI,SK-MEL-28 melanoma,> 100 µM
same,GI50,SK-MEL-5 melanoma,1.2 µM
same,TGI,SK-MEL-5 melanoma,3.95 µM
same,GI50,SK-OV-3 ovarian,5.12 µM
same,TGI,SK-OV-3 ovarian,> 100 µM
same,GI50,SN12C renal,0.762 µM
same,TGI,SN12C renal,> 100 µM
same,GI50,SNB-19 CNS,4.7 µM
same,TGI,SNB-19 CNS,> 100 µM
same,GI50,SNB-75 CNS,1.23 µM
same,TGI,SNB-75 CNS,> 100 µM
same,GI50,SR leukemia,0.422 µM
same,TGI,SR leukemia,> 100 µM
same,GI50,SW-620 colon,0.486 µM
same,TGI,SW-620 colon,> 100 µM
same,GI50,T-47D breast,7.61 µM
same,TGI,T-47D breast,> 100 µM
same,GI50,TK-10 renal,13.8 µM
same,TGI,TK-10 renal,> 100 µM
same,GI50,U251 CNS,2.84 µM
same,TGI,U251 CNS,> 100 µM
same,GI50,UACC-257 melanoma,31.4 µM
same,TGI,UACC-257 melanoma,> 100 µM
same,GI50,UACC-62 melanoma,2.21 µM
same,TGI,UACC-62 melanoma,86.7 µM
same,GI50,UO-31 renal,1.65 µM
same,TGI,UO-31 renal,> 100 µM
